Measurements: the Kinase Knowledgebase extract (Sharma et al. 2016)

Each molecule was assayed against MAPK14 (human) (UniProt Q16539) (assay: Inhibition of MAPK14 Kinase Activity).
Sequence of MAPK14 (human) (Q16539 whole entry, looked up): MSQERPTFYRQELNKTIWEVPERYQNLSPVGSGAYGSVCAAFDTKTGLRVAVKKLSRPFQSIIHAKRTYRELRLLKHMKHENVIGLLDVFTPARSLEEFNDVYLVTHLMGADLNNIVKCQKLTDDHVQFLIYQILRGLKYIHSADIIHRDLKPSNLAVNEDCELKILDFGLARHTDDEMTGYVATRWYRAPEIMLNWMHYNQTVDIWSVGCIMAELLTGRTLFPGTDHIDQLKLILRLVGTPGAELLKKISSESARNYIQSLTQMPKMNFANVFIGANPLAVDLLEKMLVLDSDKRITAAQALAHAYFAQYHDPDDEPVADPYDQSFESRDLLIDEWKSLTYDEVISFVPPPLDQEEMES

Row | Compound | Ki [nM] | IC50 [nM]
1 | Cc1ccc(C(=O)Nc2ccon2)cc1Nc1ncnc(NC(C)C)c1C#N | 0.41 | –
2 | Cc1ccc(C(=O)Nc2ccon2)cc1Nc1nc(N)nc(NC(C)C)c1C#N | 0.057 | –
3 | CCn1nccc1NC(=O)c1ccc(C)c(Nc2nc(N)nc(NC(C)C)c2C#N)c1 | 1.5 | 1.5
4 | CNc1ncnc(Nc2cc(C(=O)NOC)ccc2C)c1C#N | 16 | –
5 | CCCNc1ncnc(Nc2cc(C(=O)NOC)ccc2C)c1C#N | 0.97 | –
6 | CCn1nccc1NC(=O)c1ccc(C)c(Nc2ncnc(NC(C)C)c2C#N)c1 | 15 | –
7 | Cc1ccc(C(=O)Nc2ccon2)cc1Nc1nc(N)nc(NC2CCCC2)c1C#N | 0.16 | –
8 | CONC(=O)c1ccc(C)c(Nc2nc(N3CCCN(C)CC3)nc(N(C)CC(C)(C)C)c2C#N)c1 | 0.057 | –
9 | CCn1nccc1NC(=O)c1ccc(C)c(Nc2ncnc(NC3CCCC3)c2C#N)c1 | 14 | –
10 | CNc1nc(Nc2cc(C(=O)NOC)ccc2C)c(C#N)c(N(C)CC(C)(C)C)n1 | 0.047 | –
11 | CONC(=O)c1ccc(C)c(Nc2ncnc(NC(C)C)c2C#N)c1 | 0.61 | –
12 | CCn1nccc1NC(=O)c1ccc(C)c(Nc2nc(N)nc(NC3CCCC3)c2C#N)c1 | 1.9 | 1.9
13 | CONC(=O)c1ccc(C)c(Nc2ncnc(N(C)CC(C)(C)C)c2C#N)c1 | 0.15 | –
14 | CONC(=O)c1ccc(C)c(Nc2nc(N)nc(N(C)CC(C)(C)C)c2C#N)c1 | 0.05 | –
15 | Cc1ccc(C(=O)Nc2ccon2)cc1Nc1ncnc(NC2CCCC2)c1C#N | 1.6 | –
